Our source for the Activity, hemolysis and IC50 values is ChEMBL document CHEMBL3112578, “Synthesis and haemolytic activity of novel salts made of nicotine alkaloids and bile acids” (Bioorg Med Chem Lett, 2014).

Values after ≈ are worked out from the molar mass of the structure shown.

Data set [1] is described as follows: Hemolytic activity in human erythrocytes assessed as increase in cell permeability up to 1 mg/mL after 60 mins. Format: ADME, cell-based. The settings on record: erythrocyte, 1 h.
Data set [2] is described as follows: Hemolytic activity in human erythrocytes assessed as release of hemoglobin at 0.67 mg/mL after 60 mins relative to control. Format: ADME, cell-based, Erythrocyte. The settings on record: read-out: Activity.
Data set [3] can be described thus: Hemolytic activity in human erythrocytes assessed as release of hemoglobin after 60 mins. Format: ADME, cell-based, Erythrocyte. The settings on record: 1 h; for Activity: human, erythrocyte; for IC50: Homo sapiens, Erythrocyte.
A short description of data set [4]: Hemolytic activity in human erythrocytes assessed as release of hemoglobin at 0.007 mg/mL after 60 mins relative to control.
A short description of data set [5]: Hemolytic activity in human erythrocytes assessed as release of hemoglobin at 0.00001 mg/mL after 60 mins relative to control. Format: ADME, cell-based, Erythrocyte. The settings on record: read-out: Activity.
A short description of data set [6]: Hemolytic activity in human erythrocytes assessed as induction of stomatocytic shape alteration at hemolysis start concentration after 60 mins by SEM analysis. Format: cell-based. The settings on record: erythrocyte, 1 h.
The nature of data set [7]: Hemolytic activity in human erythrocytes assessed as release of hemoglobin at 0.0001 mg/mL after 60 mins relative to control. The settings on record: read-out: Activity. Format: ADME, cell-based, Erythrocyte.
Data set [8] can be described thus: Hemolytic activity in human erythrocytes assessed as discocytic shape up to 1 mg/mL after 60 mins by SEM analysis. Format: ADME, cell-based. The settings on record: erythrocyte, 1 h.
Data set [9] in a line: Hemolytic activity in human erythrocytes assessed as release of hemoglobin at 0.63 mg/mL after 60 mins relative to control. Format: ADME, cell-based, Erythrocyte. As to conditions: read-out: Activity.
Data set [10] can be described thus: Hemolytic activity in human erythrocytes assessed as release of hemoglobin at 0.17 mg/mL after 60 mins relative to control. Format: ADME, cell-based, Erythrocyte. As to conditions: read-out: Activity.
Data set [11] can be described thus: Hemolytic activity in human erythrocytes assessed as release of hemoglobin at 0.006 mg/mL after 60 mins relative to control. The settings on record: read-out: Activity. Format: ADME, cell-based, Erythrocyte.
Data set [12] in a line: Hemolytic activity in human erythrocytes assessed as induction of echinocytic shape alteration at hemolysis start concentration after 60 mins by SEM analysis. Format: cell-based. The settings on record: erythrocyte, 1 h.
A short description of data set [13]: Hemolytic activity in human erythrocytes assessed as release of hemoglobin at 0.19 mg/mL after 60 mins relative to control. Format: ADME, cell-based, Erythrocyte. As to conditions: read-out: Activity.
Data set [14] is described as follows: Hemolytic activity in human erythrocytes assessed as induction of spheroechinocytic shape alteration at hemolysis start concentration after 60 mins by SEM analysis. Format: cell-based. As to conditions: erythrocyte, 1 h.
Data set [15] is described as follows: Hemolytic activity in human erythrocytes assessed as release of hemoglobin at 0.75 mg/mL after 60 mins relative to control. Format: ADME, cell-based, Erythrocyte. The settings on record: read-out: Activity.

Turning to `CN1C(=S)CC[C@H]1c1cccnc1.C[C@H](CCC(=O)O)[C@H]1CC[C@H]2[C@@H]3CC[C@@H]4C[C@H](O)CC[C@]4(C)[C@H]3C[C@H](O)[C@]12C`, the Activity entry in [1] is recorded as “Non-toxic”; in data set [3], “Dose-dependent effect”. In data set [2], the hemolysis at 1 h, 0.67 mg/mL was found to be 5%.
For `CN1CCC[C@H]1c1cccnc1.C[C@H](CCC(=O)O)[C@H]1CC[C@H]2[C@@H]3CC[C@@H]4C[C@H](O)CC[C@]4(C)[C@H]3CC[C@]12C`, in [4], the hemolysis at 1 h, 0.007 mg/mL came to 5%. Also, in data set [5], the hemolysis at 1 h, 1e-05 mg/mL was 16.7%. Further, the Activity entry in data set [6] is “Toxic”; in data set [3] it was “Dose-dependent effect”. Besides, the IC50 in data set [3] is 200 µg/mL.
Turning to `CN1CCC[C@H]1c1cccnc1.C[C@H](CCC(=O)O)[C@H]1CC[C@H]2[C@@H]3[C@H](O)C[C@@H]4C[C@H](O)CC[C@]4(C)[C@H]3C[C@H](O)[C@]12C`, in data set [1], the Activity result was “Non-toxic”.
As to `C[C@H](CCC(=O)O)[C@H]1CC[C@H]2[C@@H]3CC[C@@H]4C[C@H](O)CC[C@]4(C)[C@H]3CC[C@]12C` [LITHOCHOLIC ACID], in data set [7], the hemolysis at 1 h, 0.0001 mg/mL was found to be 5%. Moreover, the Activity entry in data set [6] is “Toxic”. Moreover, the IC50 in [3] amounted to 9 µg/mL (≈ 23.9 µM).
Regarding `CN1C(=S)CC[C@H]1c1cccnc1`, the Activity result in data set [1] and in data set [8] was “Non-toxic” throughout.
As for `CN1CCC[C@H]1c1cccnc1.C[C@H](CCC(=O)O)[C@H]1CC[C@H]2[C@@H]3CC[C@@H]4C[C@H](O)CC[C@]4(C)[C@H]3C[C@H](O)[C@]12C`, the Activity result is reported as “Non-toxic” in data set [1], “Toxic” in data set [6] and “Dose-dependent effect” in data set [3]. In data set [5], the hemolysis at 1 h, 1e-05 mg/mL turned out to be 12.4%. Moreover, in data set [9], the hemolysis at 1 h, 0.63 mg/mL stood at 5%.
As to `CN1C(=[Se])CC[C@H]1c1cccnc1`, the Activity entry in data set [1] and in [8] was “Non-toxic” each time.
Consider `C[C@H](CCC(=O)O)[C@H]1CC[C@H]2[C@@H]3CC[C@@H]4C[C@H](O)CC[C@]4(C)[C@H]3C[C@H](O)[C@]12C` [SODIUM DEOXYCHOLATE], for which, in [10], the hemolysis at 1 h, 0.17 mg/mL was 5%. In data set [6], the Activity entry is “Toxic”.
As to `CN1C(=[Se])CC[C@H]1c1cccnc1.C[C@H](CCC(=O)O)[C@H]1CC[C@H]2[C@@H]3CC[C@@H]4C[C@H](O)CC[C@]4(C)[C@H]3CC[C@]12C`, the hemolysis at 1 h, 0.006 mg/mL in [11] worked out at 5%. In data set [3], the IC50 was 180 µg/mL and the Activity entry is “Dose-dependent effect”. The Activity result in data set [12] is listed as “Toxic”.
Regarding `CN1C(=[Se])CC[C@H]1c1cccnc1.C[C@H](CCC(=O)O)[C@H]1CC[C@H]2[C@@H]3CC[C@@H]4C[C@H](O)CC[C@]4(C)[C@H]3C[C@H](O)[C@]12C`, the hemolysis at 1 h, 0.19 mg/mL in [13] is 5%. In [3], the IC50 was found to be 610 µg/mL and the Activity result is recorded as “Dose-dependent effect”.
For `CN1C(=S)CC[C@H]1c1cccnc1.C[C@H](CCC(=O)O)[C@H]1CC[C@H]2[C@@H]3CC[C@@H]4C[C@H](O)CC[C@]4(C)[C@H]3CC[C@]12C`, the hemolysis at 1 h, 1e-05 mg/mL in data set [5] is 5%. Moreover, in data set [3], the IC50 was 40 µg/mL. The Activity result was “Dose-dependent effect” in data set [3], “Toxic” in [14] and “Toxic” in data set [12].
Consider `CN1CCC[C@H]1c1cccnc1` [NICOTINE], for which the Activity result in data set [1] and in data set [8] was “Non-toxic” throughout.
In the case of `C[C@H](CCC(=O)O)[C@H]1CC[C@H]2[C@@H]3[C@H](O)C[C@@H]4C[C@H](O)CC[C@]4(C)[C@H]3C[C@H](O)[C@]12C` [CHOLIC ACID], the Activity entry in [1] is “Non-toxic”. For the same compound, the hemolysis at 1 h, 0.75 mg/mL in [15] came to 5%.
